# Experimental data published in patent publication US10343992B2, “1-cyano-pyrrolidine compounds as USP30 inhibitors” (MISSION THERAPEUTICS LIMITED, priority 2015, dated 2019).
# Molecular target: USP30 (Homo sapiens (Human), UniProt Q70CQ3)
# Assay: USP30 biochemical FP or FI IC50 assay
# Conditions: read-out: IC50 range
# Experimental: USP30 Biochemical IC50 Assay
# Dilution plates were prepared at 21 times the final concentration (2100 μM for a final concentration of 100 μM) in 50% DMSO in a 96-well polypropylene V-bottom plate (Greiner #651201). A typical 8-point dilution series would be 100, 30, 10, 3, 1, 0.3, 0.1, 0.03 μM final. Reactions were performed in duplicate in black 384 well plates (small volume, Greiner 784076) in a final reaction volume of 21 μl. Either 1 μl of 50% DMSO or diluted compound was added to the plate. USP30 was diluted in reaction buffer (40 mM Tris, pH 7.5, 0.005% Tween 20, 0.5 mg/ml BSA, 5 mM—beta-mercaptoethanol) to the equivalent of 0.05 μl/well and 10 μl of diluted USP30 was added to the compound. Enzyme and compound were incubated for 30 min at room temp. Reactions were initiated by the addition of 50 nM of TAMRA labelled peptide linked to ubiquitin via an iso-peptide bond as fluorescence polarisation substrate. Reactions were read immediately after addition of substrate and following a 2 hr incubation at room temperature. Readings were performed on a Pherastar Plus (BMG Labtech). λ Excitation 540 nm; λ Emission 590 nm.
# USP30 Biochemical Fluorescence Intensity IC50 Assay
# Dilution plates were prepared at 21 times the final concentration (2100 μM for a final concentration of 100 μM) in 50% DMSO in a 96-well polypropylene V-bottom plate (Greiner #651201). A typical 8-point dilution series would be 100, 30, 10, 3, 1, 0.3, 0.1, 0.03 μM final. Reactions were performed in duplicate in black 384 well plates (small volume, Greiner 784076) in a final reaction volume of 21 μl.
# Either 1 μl of 50% DMSO or diluted compound was added to the plate. USP30 was diluted in reaction buffer (40 mM Tris, pH 7.5, 0.005% Tween 20, 0.5 mg/ml BSA, 5 mM—beta-mercaptoethanol) to the equivalent of 0.001 μl/well and 10 μl of diluted USP30 was added to the compound. Enzyme and compound were incubated for 30 min at room temp. Reactions were initiated by the addition of Ubiquitin-Rhodamine 110 (U-555; Boston Biochem) at a final concentration of 100 nM. Reactions were read immediately after addition of substrate and following a 2 h incubation at room temperature. Readings were performed on a Pherastar Plus (BMG Labtech). λ Excitation 487 nm; λ Emission 535 nm.
# USP30, sequence (Q70CQ3 57-517): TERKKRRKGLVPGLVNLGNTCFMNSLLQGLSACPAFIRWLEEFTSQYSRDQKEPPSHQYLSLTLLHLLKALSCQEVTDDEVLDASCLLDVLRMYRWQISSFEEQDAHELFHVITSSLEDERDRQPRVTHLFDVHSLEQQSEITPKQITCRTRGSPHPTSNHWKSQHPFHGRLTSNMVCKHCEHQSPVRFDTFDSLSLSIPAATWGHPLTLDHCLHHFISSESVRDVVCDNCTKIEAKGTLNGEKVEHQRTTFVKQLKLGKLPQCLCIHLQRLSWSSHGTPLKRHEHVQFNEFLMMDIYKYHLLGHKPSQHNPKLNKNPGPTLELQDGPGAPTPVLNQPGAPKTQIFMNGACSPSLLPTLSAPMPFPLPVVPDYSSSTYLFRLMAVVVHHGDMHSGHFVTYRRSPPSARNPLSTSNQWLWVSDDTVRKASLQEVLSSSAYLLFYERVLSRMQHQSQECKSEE
row,Structure (SMILES),IC50 [nM]
1,"C[C@@H]1CN(C#N)C[C@H]1NC(=O)c1ncc(-c2ccccc2)s1 [Example 70, N-((3S,4R)-1-cyano-4-methylpyrrolidin-3-yl)-5-phenylthiazole-2-carboxamide]",< 100
2,"C[C@H]1CN(C#N)C[C@@H]1NC(=O)c1cnc(-c2ccccc2)s1 [Example 71, N-((3R,4S)-1-cyano-4-methylpyrrolidin-3-yl)-2-phenylthiazole-5-carboxamide]",100 to 1000
3,"C[C@@H]1CN(C#N)C[C@H]1NC(=O)c1cnc(-c2ccccc2)s1 [Example 72, N-((3S,4R)-1-cyano-4-methylpyrrolidin-3-yl)-2-phenylthiazole-5-carboxamide]",< 100
4,"N#CN1CC[C@@H](NC(=O)c2ccnc(N3Cc4ccccc4C3)c2)C1 [Example 73, (R)—N-(1-cyanopyrrolidin-3-yl)-2-(isoindolin-2-yl)isonicotinamide]",100 to 1000
5,"N#CN1CC[C@@H](NC(=O)c2ccnc(N3CCc4ccccc4C3)c2)C1 [Example 74, (R)—N-(1-cyanopyrrolidin-3-yl)-2-(3,4-dihydroisoquinolin-2(1H)-yl)isonicotinamide]",100 to 1000
6,"Cc1cn(-c2ccc(C(=O)N[C@@H]3CCN(C#N)C3)c(F)c2)cn1 [Example 75, (R)—N-(1-cyanopyrrolidin-3-yl)-2-fluoro-4-(4-methyl-1H-imidazol-1-yl)benzamide]",100 to 1000
7,"Cn1cc(-c2ccc(C(=O)N[C@@H]3CCN(C#N)C3)cc2F)cn1 [Example 76, (R)-N-(1-cyanopyrrolidin-3-yl)-3-fluoro-4-(1-methyl-1H-pyrazol-4-yl)benzamide]",< 100
8,"Cn1cc(-c2ccc(C(=O)N[C@@H]3CCN(C#N)C3)c(F)c2)cn1 [Example 77, (R)-N-(1-cyanopyrrolidin-3-yl)-2-fluoro-4-(1-methyl-1H-pyrazol-4-yl)benzamide]",< 100
9,"Cn1cc(-c2cc(F)c(C(=O)N[C@@H]3CCN(C#N)C3)cc2F)cn1 [Example 78, (R)-N-(1-cyanopyrrolidin-3-yl)-2,5-difluoro-4-(1-methyl-1H-pyrazol-4-yl)benzamide]",< 100
10,"Cc1nn(C)cc1-c1ccc(C(=O)N[C@@H]2CCN(C#N)C2)cc1F [Example 79, (R)-N-(1-cyanopyrrolidin-3-yl)-4-(1,3-dimethyl-1H-pyrazol-4-yl)-3-fluorobenzamide]",< 100
11,"Cc1nn(C)cc1-c1ccc(C(=O)N[C@@H]2CCN(C#N)C2)c(F)c1 [Example 80, (R)-N-(1-cyanopyrrolidin-3-yl)-4-(1,3-dimethyl-1H-pyrazol-4-yl)-2-fluorobenzamide]",< 100
12,"CCn1cc(-c2ccc(C(=O)N[C@@H]3CCN(C#N)C3)c(F)c2)cn1 [Example 81, (R)-N-(1-cyanopyrrolidin-3-yl)-4-(1-ethyl-1H-pyrazol-4-yl)-2-fluorobenzamide]",< 100
13,"COCCn1cc(-c2ccc(C(=O)N[C@@H]3CCN(C#N)C3)c(F)c2)cn1 [Example 82, (R)-N-(1-cyanopyrrolidin-3-yl)-2-fluoro-4-(1-(2-methoxyethyl)-1H-pyrazol-4-yl)benzamide]",100 to 1000
14,"Cn1cc(-c2ccc3nc(C(=O)N[C@@H]4CCN(C#N)C4)[nH]c3c2)cn1 [Example 83, (R)-N-(1-cyanopyrrolidin-3-yl)-6-(1-methyl-1H-pyrazol-4-yl)-1H-benzo[d]imidazole-2-carboxamide]",100 to 1000
15,"Cn1cc(-c2ccc3cc(C(=O)N[C@@H]4CCN(C#N)C4)[nH]c3c2)cn1 [Example 84, (R)-N-(1-cyanopyrrolidin-3-yl)-6-(1-methyl-1H-pyrazol-4-yl)-1H-indole-2-carboxamide]",100 to 1000
16,"N#CN1CC[C@@H](NC(=O)c2ccc(-c3cn[nH]c3C(F)(F)F)cc2F)C1 [Example 85, (R)-N-(1-cyanopyrrolidin-3-yl)-2-fluoro-4-(5-(trifluoromethyl)-1H-pyrazol-4-yl)benzamide]",< 100
17,"Cn1ncc2cc(-c3ccc(C(=O)N[C@@H]4CCN(C#N)C4)c(F)c3)ccc21 [Example 86, (R)-N-(1-cyanopyrrolidin-3-yl)-2-fluoro-4-(1-methyl-1H-indazol-5-yl)benzamide]",< 100
18,"CN(C(=O)c1ccc(-c2cnn(C)c2)c(F)c1)[C@@H]1CCN(C#N)C1 [Example 87, (R)-N-(1-cyanopyrrolidin-3-yl)-3-fluoro-N-methyl-4-(1-methyl-1H-pyrazol-4-yl)benzamide]",100 to 1000

row,Structure (SMILES),IC50 [nM]
1,"CN(C(=O)c1nc2ccc(-c3cnn(C)c3)cc2[nH]1)[C@@H]1CCN(C#N)C1 [Example 88, (R)-N-(1-cyanopyrrolidin-3-yl)-N-methyl-6-(1-methyl-1H-pyrazol-4-yl)-1H-benzo[d]imidazole-2-carboxamide]",100 to 1000
2,"CN(C(=O)N1CC(Oc2ccccc2)C1)[C@@H]1CCN(C#N)C1 [Example 89, (R)—N-(1-cyanopyrrolidin-3-yl)-N-methyl-3-phenoxyazetidine-1-carboxamide]",100 to 1000
3,"N#CN1C[C@H]2CCN(C(=O)Nc3ccc(C(F)(F)F)cc3F)[C@H]2C1 [Example 90, (3aR,6aR)-5-cyano-N-(2-fluoro-4-(trifluoromethyl)phenyl)hexahydropyrrolo[3,4-b]pyrrole-1(2H)-carboxamide]",< 100
4,"N#CN1CC[C@@H](NC(=O)c2ccc(Nc3ncccn3)cc2F)C1 [Example 91, (R)—N-(1-cyanopyrrolidin-3-yl)-2-fluoro-4-(pyrimidin-2-ylamino)benzamide]",< 100
5,"Cn1cc(-c2ccc(C(=O)NC3(C)CCN(C#N)C3)c(F)c2)cn1 (stereo not drawn) [Example 94, N-(1-cyano-3-methylpyrrolidin-3-yl)-2-fluoro-4-(1-methyl-1H-pyrazol-4-yl)benzamide]",1000 to 10000
6,"COc1ccc(-c2cc(C(=O)N[C@@H]3CCN(C#N)C3)n[nH]2)cc1 [Example 95, (R)-N-(1-cyanopyrrolidin-3-yl)-5-(4-methoxyphenyl)-1H-pyrazole-3-carboxamide]",< 100
7,"N#CN1CC[C@@H](NC(=O)c2cc(-c3ccccn3)[nH]n2)C1 [Example 96, (R)-N-(1-cyanopyrrolidin-3-yl)-5-(pyridin-2-yl)-1H-pyrazole-3-carboxamide]",100 to 1000
8,"COc1ccccc1-c1cc(C(=O)N[C@@H]2CCN(C#N)C2)n[nH]1 [Example 97, (R)-N-(1-cyanopyrrolidin-3-yl)-5-(2-methoxyphenyl)-1H-pyrazole-3-carboxamide]",< 100
9,"N#CN1CC[C@@H](NC(=O)c2cc(-c3ccccc3F)[nH]n2)C1 [Example 98, (R)-N-(1-cyanopyrrolidin-3-yl)-5-(2-fluorophenyl)-1H-pyrazole-3-carboxamide]",< 100
10,"N#CN1CC[C@@H](NC(=O)c2ccc(N3CCOCC3)nc2)C1 [Example 99, (R)-N-(1-cyanopyrrolidin-3-yl)-6-morpholinonicotinamide]",100 to 1000
11,"COc1ccc(-c2cc(C(=O)N[C@@H]3CCN(C#N)C3)on2)cc1 [Example 100, (R)-N-(1-cyanopyrrolidin-3-yl)-3-(4-methoxyphenyl)isoxazole-5-carboxamide]",< 100
12,"N#CN1CC[C@@H](NC(=O)c2n[nH]c3ccccc23)C1 [Example 101, (R)-N-(1-cyanopyrrolidin-3-yl)-1H-indazole-3-carboxamide]",100 to 1000
13,"N#CN1CC[C@@H](NC(=O)c2cc(-c3ccccc3)[nH]n2)C1 [Example 102, (R)-N-(1-cyanopyrrolidin-3-yl)-phenyl-1H-pyrazole-3-carboxamide]",< 100
14,"N#CN1CC[C@@H](NC(=O)c2cc(-c3cccnc3)[nH]n2)C1 [Example 103, (R)-N-(1-cyanopyrrolidin-3-yl)-5-(pyridin-3-yl)-1H-pyrazole-3-carboxamide]",100 to 1000
15,"Cn1cc(-c2cccc(C(=O)N[C@@H]3CCN(C#N)C3)c2F)cn1 [Example 104, (R)-N-(1-cyanopyrrolidin-3-yl)-2-fluoro-3-(1-methyl-1H-pyrazol-4-yl)benzamide]",100 to 1000
16,"Cc1nccc(-c2ccc(C(=O)N[C@@H]3CCN(C#N)C3)c(F)c2)n1 [Example 105, (R)-N-(1-cyanopyrrolidin-3-yl)-2-fluoro-4-(2-methylpyrimidin-4-yl)benzamide]",< 100
17,"Cn1cc(-c2ccc(C(=O)N[C@@H]3CCN(C#N)C3)nc2)cn1 [Example 106, (R)-N-(1-cyanopyrrolidin-3-yl)-5-(1-methyl-1H-pyrazol-4-yl)picolinamide]",100 to 1000
18,"Cn1cc(-c2ccc(F)c(C(=O)N[C@@H]3CCN(C#N)C3)c2)cn1 [Example 107, (R)-N-(1-cyanopyrrolidin-3-yl)-2-fluoro-5-(1-methyl-1H-pyrazol-4-yl)benzamide]",100 to 1000
